Square brackets hold non-standard residues; d marks the D form. Peptide text beside a SMILES is read from it. * marks the point of attachment. dLys(Me3) = C[N+](C)(C)CCCC[C@@H](N)C(=O)O; Boc = CC(C)(C)OC(=O)*
How the values were obtained:
neuromuscular junction [1] = assay: Rabbit paw twitch analysis; assay type: in vivo; details: for ED90 (dose required to depress twitch tension to 10% of control): anesthetized male New Zealand white rabbits, i.v. marginal ear vein
Text: In a large series of similar relaxants, the rabbit dose is typically 125% of that in mice. The mechanism of action was also confirmed in this test by observing train-of-four and tetanus fade, post-tetanic potentiation of single twitches and administration of the anticholinesterase drug neostigmine which reverses the relaxation. Reversibility, rapid onset and short duration are important factors to the anesthesiologist.
The following is a brief description of the methodologies used in rabbits to describe neuromuscular blocking activity of the subject compounds. A more detailed description of these methods is presented in "Microcomputer Use in Measuring Onset, Duration, and Recovery from Non-Depolarizing Skeletal Muscle Relaxants in Rabbits", P.D. Thut et al., Drug development Research 5:182, 1985.
Male New Zealand white rabbits weighing between 2.5 and 3.4 kg were anesthetized with pentobarbital (30 mg/kg) and placed on their backs upon a 40° C. water filled temperature regulation pad. Following tracheostomy, the lungs were mechanically ventilated at 28 breaths per minute with room air, using an open system delivering 200 ml/stroke. This ventilation maintained pCO2 at 38 […] and pO2 at 85 mmHg. Direct arterial blood pressure was measured from the right common carotid artery. The test compounds were administered through a cannula placed in the marginal ear vein. Each foreleg was taped to a cushioned plate held in a femur clamp attached to the spinal board rack. The left central digit of each paw was connected to a force displacement transducer for measurement of muscle tension. Nerve stimulation was provided by pairs of pin electrodes placed on both sides of the ulnar nerve at the elbow of both forearms. The right ulnar nerve was stimulated at 1 Hz, 1 pps for 0.5 msec duration. The left ulnar nerve was similarly stimulated, every 15 seconds, with addition of interspersed trains-of-four and tetanizing stimuli. The parameters reported in Table II are: potency (ED90), which is the dose required to depress twitch tension to 10% of its control value; onset (T85%), which is the time from injection until 85% of the maximal drug effect is achieved; duration, which is the time from injection until the train-of-four has recovered to 75%; blood pressure (BP), which is the percentage change of pre-drug blood pressure; and heart rate (HR), which is the percentage change from pre-drug heart rate.

neuromuscular junction [2] = assay: Mouse inclined screen grip strength test (neuromuscular junction blocking activity); assay type: in vivo; details: mice on screen inclined 45°; dose required to inhibit grip strength
Protocol: The first step, in mice, establishes a preliminary estimate of the potency and efficacy of the compounds. The animals were placed on a screen, inclined 45° to the horizontal. Effective doses caused the mice to lose their grip and slide down the inclined screen. The dose in mg/kg of body weight required to inhibit grip strength in 100% of the mice tested in a dosage group is reported.

COC(=O)[C@@H](CCCC[N+](C)(C)C)NC(=O)[C@@H](Cc1ccccc1)NC(=O)[C@@H](CCCC[N+](C)(C)C)NC(=O)OC(C)(C)C [Compound B] (Boc-[dLys(Me3)]-[dF]-[dLys(Me3)]-OMe)
HR (% change from pre-drug heart rate) (neuromuscular junction [1]; rabbit, equi-efficacious dose): 8.79 % change
BP (% change of pre-drug blood pressure) (neuromuscular junction [1]; rabbit, equi-efficacious dose, carotid arterial pressure): -18.83 % change

COc1ccc(CC2c3cc(OC)c(OC)cc3CC[N+]2(C)CCC(=O)OCCCCCOC(=O)CC[N+]2(C)CCc3cc(OC)c(OC)cc3C2Cc2ccc(OC)c(OC)c2)cc1OC (stereo not drawn) [atracurium]
Neuromuscular Junction Blocking Activity (ED90), Mouse (neuromuscular junction [2]): 0.63 mg/kg
ED90 (dose required to depress twitch tension to 10% of control) (neuromuscular junction [1]): 0.05 mg/kg
T85% onset (time from injection until 85% of maximal drug effect) (neuromuscular junction [1]; rabbit, equi-efficacious dose): 126.90 s

CC(=O)O[C@H]1C[C@@H]2CC[C@@H]3[C@H](CC[C@@]4(C)[C@H]3C[C@H]([N+]3(C)CCCCC3)[C@@H]4OC(C)=O)[C@@]2(C)C[C@@H]1[N+]1(C)CCCCC1 [pancuronium]
ED90 (dose required to depress twitch tension to 10% of control) (neuromuscular junction [1]): 0.02 mg/kg
Duration (time from injection until train-of-four recovered to 75%) (neuromuscular junction [1]; rabbit, equi-efficacious dose): 35.50 min
T85% onset (time from injection until 85% of maximal drug effect) (neuromuscular junction [1]; rabbit, equi-efficacious dose): 147.50 s

CC(=O)O[C@H]1C[C@@H]2CC[C@@H]3[C@H](CC[C@@]4(C)[C@H]3C[C@H]([N+]3(C)CCCCC3)[C@@H]4OC(C)=O)[C@@]2(C)C[C@@H]1N1CCCCC1 [vecuronium]
Neuromuscular Junction Blocking Activity (ED90), Mouse (neuromuscular junction [2]): 0.03 mg/kg
ED90 (dose required to depress twitch tension to 10% of control) (neuromuscular junction [1]): 0.02 mg/kg
HR (% change from pre-drug heart rate) (neuromuscular junction [1]; rabbit, equi-efficacious dose): -9.90 % change
T85% onset (time from injection until 85% of maximal drug effect) (neuromuscular junction [1]; rabbit, equi-efficacious dose): 97.30 s

— patent US5494898A, “Peptide skeletal muscle relaxants” (priority 1994, dated 1996)
